For assay [1], the system named is C3H mice (conversion from telogen to anagen, skin color grade). The assay can be described thus: Telogen Conversion Assay. The assay is classed as in vivo. The conditions noted are these: topical; for Average Grades, 23 Days: visual skin color grade 0 (whitish) to 4 (dark blue, full anagen), average of 7 mice after 23 days. How it is done:
PGF's are tested for their potential to grow hair using the Telogen Conversion Assay. The Telogen Conversion Assay measures the potential of a PGF to convert mice in the resting stage of the hair growth cycle (“telogen”), to the growth stage of the hair growth cycle (“anagen”).
Without intending to be limited by theory, there are three principal phases of the hair growth cycle: anagen, catagen, and telogen. It is believed that there is a longer telogen period in C3H mice (Harlan Sprague Dawley, Inc., Indianapolis, Ind.) from approximately 40 days of age until about 75 days of age, when hair growth is synchronized. It is believed that after 75 days of age, hair growth is no longer synchronized. Wherein about 40 day-old mice with dark fur (brown or black) are used in hair growth experiments, melanogenesis occurs along with hair (fur) growth wherein the topical application of hair growth inducers are evaluated. The Telogen Conversion Assay herein is used to screen PGF's for potential hair growth by measuring melanogenesis.
Three groups of 44 day-old C3H mice are used: a vehicle control group, a positive control group, and a test PGF group, wherein the test PGF group is administered a PGF used in the method of this invention. The length of the assay is 24 days with 15 treatment days (wherein the treatment days occur Mondays through Fridays). Day 1 is the first day of treatment. Typical dosage concentrations are set forth in Table 1, however the skilled artisan will readily understand that such concentrations may be modified.
The mice are treated topically Monday through Friday on their lower back (base of tail to the lower rib). A pipettor and tip are used to deliver 400 μL to each mouse's back. The 400 μL application is applied slowly while moving hair on the mouse to allow the application to reach the skin.
While each treatment is being applied to the mouse topically, a visual grade of from 0 to 4 will be given to the skin color in the application area of each animal. As a mouse converts from telogen to anagen, its skin color will become more bluish-black.

In assay [2] the target is T1, hFP receptor (hFP membrane from transfected COS-7 cells) (Homo sapiens, UniProt P43088).
T1 construct: expressed in transfected cells; host or cells: COS-7 cells (transient transfection, LipofectAMINE); membrane preparation
The assay can be described thus: Radioligand Binding Assay. The conditions noted are these: competition with (3H) PGF2 on hFP membrane; read-out: IC50 the PGF. How it is done: IC50 of a PGF can be determined relative to PGF2α using the Radioligand Binding Assay. As a control, the IC50 for PGF2α itself should be no lower than 1.0 nM and no higher than 5.0 nM.
In this assay, COS-7 cells are transiently transfected with the hFP recombinant plasmid using LipofectAMINE Reagent. Forty-eight hours later, the transfected cells are washed with Hank's Balanced Salt Solution (HBSS, without CaCl2, MgCl2, MgSO4, or phenol red). The cells are detached with versene, and HBSS is added. The mixture is centrifuged at 200 g for 10 minutes, at 4° C. to pellet the cells. The pellet is resuspended in Phosphate-Buffered Saline-EDTA buffer (PBS; 1 mM EDTA; pH 7.4; 4° C.). The cells are disrupted by nitrogen cavitation (Parr model 4639), at 800 psi, for 15 minutes at 4° C. The mixture is centrifuged at 1000 g for 10 minutes at 4° C. The supernatant is centrifuged at 100,000 g for 60 minutes at 4° C. The pellet is resuspended to 1 mg protein/mL TME buffer (50 mM Tris; 10 mM MgCl2; 1 mM EDTA; pH 6.0; 4° C.) based on protein levels measured using the Pierce BCA Protein Assay kit. The homogenate is mixed for 10 seconds using a Kinematica POLYTRON® (available from KINEMATICA AG, Luzernerstrasse 147A CH-6014 Littau, Switzerland). The membrane preparations are then stored at −80° C., until thawed for assay use.
The receptor competition binding assays are developed in a 96 well format. Each well contains […] of hFP membrane, 5 nM (3H) PGF2, and the various competing compounds in a total volume of […]. The plates are incubated at 23° C. for 1 hour. The incubation is terminated by rapid filtration using the Packard Filtermate 196 harvester through Packard UNIFILTER® GF/B filters (available from Packard Instrument Co., Inc. of Downers Grove Ill.) pre-wetted with TME buffer. The filter is washed four times with TME buffer. […] The plates are read on a Packard TOPCOUNT® Microplate Scintillation Counter (also available from Packard Instrument Co., Inc.)

T1 sequence (P43088 whole entry): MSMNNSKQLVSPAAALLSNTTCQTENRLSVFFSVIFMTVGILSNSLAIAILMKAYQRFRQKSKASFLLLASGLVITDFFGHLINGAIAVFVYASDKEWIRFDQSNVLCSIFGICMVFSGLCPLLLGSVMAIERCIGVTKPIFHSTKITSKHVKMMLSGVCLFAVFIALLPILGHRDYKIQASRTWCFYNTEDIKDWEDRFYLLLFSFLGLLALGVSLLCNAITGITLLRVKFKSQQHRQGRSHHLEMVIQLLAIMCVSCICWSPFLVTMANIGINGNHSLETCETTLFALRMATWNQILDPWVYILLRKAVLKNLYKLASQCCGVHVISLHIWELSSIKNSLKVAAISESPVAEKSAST

Turning to `CC(C)OC(=O)CCCCCC[C@@H]1[C@@H](CCC(O)CSc2ccccc2)[C@H](O)C[C@@H]1O` (stereo partly drawn) [Example 1], in assay [1], the “hair growth (result in words)” value was “grew hair” and the “Average Grades, 23 Days” value worked out at 0.4. In addition, in assay [1] (visual skin color grade 0 to 4, average of 7 mice after 25 days), the “Average Grades, 25 Days” value was 0.1. In assay [1] (visual skin color grade 0 to 4, average of 7 mice after 26 days), the “Average Grades, 26 Days” value turned out to be 0.7.

As for `COC(=O)CCCCCC[C@@H]1[C@@H](CCC(O)CSc2ccccc2Br)[C@H](O)C[C@@H]1O` (stereo partly drawn) [Example 2], in assay [1], the “hair growth (result in words)” value is on record as “grew hair” and the “Average Grades, 23 Days” value is 0.1.

As a reminder, the IC50 is the concentration that gives 50% inhibition. For `O=C(O)CCCCCC[C@@H]1[C@@H](CCC(O)CSc2cccc(F)c2)[C@H](O)C[C@@H]1O` (stereo partly drawn) [Example 3-1], in assay [2], the concentration for half-maximal inhibition (IC50) worked out at 7 nM.

As for `O=C(O)CCCCCC[C@@H]1[C@@H](CCC(O)CSc2ccccc2F)[C@H](O)C[C@@H]1O` (stereo partly drawn) [Example 3-2], the half-inhibitory concentration (IC50) in assay [2] was found to be 10 nM.

Take `CC(O)(CC[C@@H]1[C@@H](CCCCCCC(=O)O)[C@@H](O)C[C@H]1O)CSc1ccccc1` (stereo partly drawn) [Example 3-3]: the 50% inhibitory concentration (IC50) in assay [2] was 24 nM.

The record behind these values is US8618086B2, “Compositions and methods for treating hair loss using C16-C20 aromatic tetrahydro prostaglandins” (Duke University, priority 2000, dated 2013).
